{"source": "ChEMBL document CHEMBL5033999", "about": "“Eriodictyol-Amplified 67-kDa Laminin Receptor Signaling Potentiates the Antiallergic Effect of O-Methylated Catechin” (J Nat Prod, 2021)", "key": {"RBL-2H3 [1]": {"system": "RBL-2H3", "experiment": "Inhibition of mast cell degranulation in rat RBL-2H3 cells assessed as induction of ASM activation at 1 to 25 uM incubated for 3 hrs measured by TLC analyses", "format": "functional, cell-based", "conditions": "dose 1-25 µM"}, "RBL-2H3 [2]": {"system": "RBL-2H3", "experiment": "Inhibition of DNP-HAS-stimulated mast cell degranulation in rat RBL-2H3 cells assessed as reduction in beta-hexosaminidase release at 1 to 25 uM incubated for 3 hrs followed by DNP-HAS stimulation for 1 hr", "format": "functional, cell-based", "conditions": "dose 1-25 µM"}, "RBL-2H3 [3]": {"system": "RBL-2H3", "experiment": "Inhibition of mast cell degranulation in rat RBL-2H3 cells assessed as induction of ASM activation pre-treated with anti-67LR antibody for 3 hrs followed by compound treatment at 25 uM for 3 hrs", "format": "functional, cell-based"}, "RBL-2H3 [4]": {"system": "RBL-2H3", "experiment": "Inhibition of mast cell degranulation in rat RBL-2H3 cells assessed as reduction in beta-hexosaminidase release pre-treated with 5 uM ASM-specific inhibitor desipramine for 3 hrs followed by compound treatment at 25 uM for 3 hrs", "format": "functional, cell-based"}, "RBL-2H3 [5]": {"system": "RBL-2H3", "experiment": "Inhibition of DNP-HAS-stimulated mast cell degranulation in rat RBL-2H3 cells assessed as reduction in beta-hexosaminidase release pre-treated with 5 uM sGC inhibitor NS2028 for 1 hr followed by compound treatment at 25 uM for 3 hrs", "format": "functional, cell-based"}, "RBL-2H3 [6]": {"system": "RBL-2H3", "experiment": "Inhibition of DNP-HAS-stimulated mast cell degranulation in rat RBL-2H3 cells assessed as reduction in beta-hexosaminidase release at 0.5 uM", "format": "functional, cell-based"}, "RBL-2H3 [7]": {"system": "RBL-2H3", "experiment": "Inhibition of DNP-HAS-stimulated mast cell degranulation in rat RBL-2H3 cells assessed as reduction in beta-hexosaminidase release at 0.5 uM in presence of 0.1 uM eriodictyol", "format": "functional, cell-based"}, "RBL-2H3 [8]": {"system": "RBL-2H3", "experiment": "Inhibition of DNP-HAS-stimulated mast cell degranulation in rat RBL-2H3 cells assessed as induction of ASM activation at 0.5 uM", "format": "functional, cell-based"}, "RBL-2H3 [9]": {"system": "RBL-2H3", "experiment": "Inhibition of DNP-HAS-stimulated mast cell degranulation in rat RBL-2H3 cells assessed as induction of ASM activation at 0.5 uM in presence of 0.1 uM eriodictyol", "format": "functional, cell-based"}, "Mus musculus": {"system": "Mus musculus", "experiment": "Inhibition of IgE/Ag-mediated immediate hypersensitivity reaction in BALB/c mouse assessed as change in the level of skin extravasation at 0 to 4 mg/kg, po administered 1 hr prior to Ag challenge", "format": "functional, organism-based", "conditions": "dose 0-4 mg/kg"}, "RBL-2H3 [10]": {"system": "RBL-2H3", "experiment": "Inhibition of DNP-HAS-stimulated mast cell degranulation in rat RBL-2H3 cells assessed as reduction in beta-hexosaminidase release at 1 uM incubated for 3 hrs", "format": "functional, cell-based"}, "RBL-2H3 [11]": {"system": "RBL-2H3", "experiment": "Inhibition of DNP-HAS-stimulated mast cell degranulation in rat RBL-2H3 cells assessed as reduction in beta-hexosaminidase release at 0.01 to 1 uM", "format": "functional, cell-based", "conditions": "dose 0.01-1 µM"}, "RBL-2H3 [12]": {"system": "RBL-2H3", "experiment": "Inhibition of DNP-HAS-stimulated mast cell degranulation in rat RBL-2H3 cells assessed as reduction in beta-hexosaminidase release at 0.1 uM", "format": "functional, cell-based"}, "RBL-2H3 [13]": {"system": "RBL-2H3", "experiment": "Inhibition of DNP-HAS-stimulated mast cell degranulation in rat RBL-2H3 cells assessed as induction of ASM activation at 0.1 uM", "format": "functional, cell-based"}}, "note": "Activity calls are given as the source filed them. The rule behind the calls is not given here."}
{"smiles": "COc1cc(C(=O)O[C@@H]2Cc3c(O)cc(O)cc3O[C@@H]2c2cc(O)c(O)c(O)c2)cc(O)c1O", "values": [{"measurement": "inhibition", "setting": "RBL-2H3 [1]", "value": "Active"}, {"measurement": "inhibition", "setting": "RBL-2H3 [2]", "value": "Active"}, {"measurement": "inhibition", "setting": "RBL-2H3 [3]", "value": "inactive"}, {"measurement": "inhibition", "setting": "RBL-2H3 [4]", "value": "inactive"}, {"measurement": "inhibition", "setting": "RBL-2H3 [5]", "value": "inactive"}, {"measurement": "inhibition", "setting": "RBL-2H3 [6]", "value": "inactive"}, {"measurement": "inhibition", "setting": "RBL-2H3 [7]", "value": "Active"}, {"measurement": "inhibition", "setting": "RBL-2H3 [8]", "value": "inactive"}, {"measurement": "inhibition", "setting": "RBL-2H3 [9]", "value": "Active"}]}
{"smiles": "O=C1C[C@@H](c2ccc(O)c(O)c2)Oc2cc(O[C@@H]3O[C@H](CO)[C@@H](O)[C@H](O)[C@H]3O)cc(O)c21", "values": [{"measurement": "inhibition", "setting": "Mus musculus", "value": "inactive"}]}
{"smiles": "Nc1nc(-c2nn(Cc3ccccc3F)c3ncccc23)ncc1C1CC1", "values": [{"measurement": "inhibition", "setting": "RBL-2H3 [10]", "value": "Active"}]}
{"smiles": "O=C1C[C@@H](c2ccc(O)c(O)c2)Oc2cc(O)cc(O)c21", "values": [{"measurement": "inhibition", "setting": "RBL-2H3 [11]", "value": "inactive"}, {"measurement": "inhibition", "setting": "RBL-2H3 [12]", "value": "inactive"}, {"measurement": "inhibition", "setting": "RBL-2H3 [13]", "value": "inactive"}]}
